Reference: ChEMBL document CHEMBL4033646, “Structure of a Myeloid cell leukemia-1 (Mcl-1) inhibitor bound to drug site 3 of Human Serum Albumin” (Bioorg Med Chem, 2017)
pKi: −log10 of the molar value.

What was measured:
[1] = target: T1, Induced myeloid leukemia cell differentiation protein Mcl-1 (Homo sapiens, UniProt Q07820); assay: Inhibition of FITC-Bak-BH3 binding to recombinant MBP-fused MCL1 (172 to 318 residues) (unknown origin) by TR-FRET assay
[2] = target: T1, Induced myeloid leukemia cell differentiation protein Mcl-1; assay: Inhibition of FITC-Bak-BH3 binding to recombinant MBP-fused MCL1 (172 to 318 residues) (unknown origin) in presence of 1% FBS by TR-FRET assay

T1 sequence (Q07820 whole entry, the tested form may be a part): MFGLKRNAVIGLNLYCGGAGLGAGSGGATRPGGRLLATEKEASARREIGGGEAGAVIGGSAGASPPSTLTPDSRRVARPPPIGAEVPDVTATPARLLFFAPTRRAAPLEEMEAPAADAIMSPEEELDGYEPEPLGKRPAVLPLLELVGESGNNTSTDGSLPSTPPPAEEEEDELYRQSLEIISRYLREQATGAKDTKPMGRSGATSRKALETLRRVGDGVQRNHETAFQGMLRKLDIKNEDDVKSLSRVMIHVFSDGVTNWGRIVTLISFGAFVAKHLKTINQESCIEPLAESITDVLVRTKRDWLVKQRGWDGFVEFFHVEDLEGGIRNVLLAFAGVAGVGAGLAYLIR

Compound	pKi [1]	pKi [2]
Cc1cc(OCCCc2c(C(=O)O)[nH]c3c(-c4c(CN5CCCCC5)nn(C)c4C)cccc23)cc(C)c1Cl	7.66	7.14
Cc1cc(OCCCc2c(C(=O)O)[nH]c3c(-c4c(C)nn(C)c4C)cccc23)cc(C)c1Cl	7.32	6.58
Cc1cc(OCCCc2c(C(=O)O)[nH]c3c(-c4c(COCCN(C)C)nn(C)c4C)cccc23)cc(C)c1Cl	7.70	7.49
